The results in this text go back to patent US8088936B2, “Leukotriene B4 inhibitors” (Hoffman-La Roche Inc., priority 2009, dated 2012).

pIC50: −log10 of the molar value.

The assay relates to Human leukemia HL-60 cells endogenously expressing BLT1 and BLT2 receptors. Put plainly: Ca2+ flux assay for LTB4 antagonist assay (HL-60 FLIPR). The format is cell-based. To be noted: retinoic acid induced HL-60 cells, inhibition of LTB4-induced Ca2+ flux, 30 min preincubation; read-out: LTB4 antagonism (HL-60 FLIPR). How it is done: Assay of Compounds for Inhibition of LTB4 Activity
Ca^2+Flux Assay for LTB4 Antagonist Assay
Human leukemia HL-60 cells endogenously expressing BLT1 and BLT2 receptors were cultured in RPMI-1640 medium supplemented with 20% fetal bovine serum, 2 mM glutamine, 100 U/ml penicillin and 100 ug/ml streptomycin.
Seventy two hours prior to experiment cells are counted using ViaCount reagent, centrifuged and resuspended at 2.0×10^5 cells/ml density with the complete growth media containing 1 μM Retinoic Acid (Sigma).
On a day of the experiment loading buffer (Calcium-3 Assay Kit, Molecular Devices) was prepared by dissolving the contents of one vial (Express Kit) into 500 ml Hank's Balanced Salt Solution containing 20 mM HEPES and 5 mM probenecid. Equal volume of the loading buffer was mixed with the replacement buffer (Hank's Balanced Salt Solution containing 20 mM HEPES, 0.05% BSA and 5 mM probenecid). Retinoic Acid induced HL-60 cells were counted using ViaCount reagent, centrifuged and resuspended at 2.0×10^6 cells/ml density with the loading buffer/replacement buffer, dispensed into 384 well black/clear microplates (Falcon) (25 μl/well) and placed in a 37° C./5% CO2 incubator for 1 hour.
During the incubation, test compounds were prepared at 6× the desired concentration in HBSS/20 mM HEPES/0.05% BSA as well as LTB4 (Biomol) was prepared at 2.2× concentration in HBSS/20 mM HEPES/0.5% BSA buffer.
After the incubation, both the cell and compound plates were brought to the FLIPR and 5 μl of the diluted compounds were transferred to the cell plates by the FLIPR. Plates were then incubated for 30 min at room temperature. After the ½ hour incubation, plates were returned to the FLIPR and 25 μl of 2.2×LTB4 was added to the cell plates. During the assay, fluorescence readings were taken simultaneously from all 384 wells of the cell plate every 1.5 seconds. Five readings were taken to establish a stable baseline, then 25 μl (LTB4) of sample was rapidly and simultaneously added to each well of the cell plate. The fluorescence was continuously monitored before, during and after sample addition for a total elapsed time of 100 seconds. Responses (increase in peak fluorescence) in each well following agonist addition was determined. The initial fluorescence reading from each well, prior to ligand stimulation, was used a zero baseline value for the data from that well. The responses are expressed as % inhibition of the neutral control (neural control: wells that received buffer plus DMSO but no test compound).
Take `COCc1cc(OCCCCCCc2cccc(OCCCC(=O)O)c2CCC(=O)O)cc(-c2cccc(F)c2)c1` [Example 14, 4-{2-(2-Carboxy-ethyl)-3-[6-(3′-fluoro-5-methoxymethyl-biphenyl-3-yloxy)-hexyl]-phenoxy}-butyric acid]: the pIC50 was 8.83.

`O=C(O)CCCOc1cccc(CCCCCCOc2cc(CO)cc(-c3ccccc3)c2)c1CCC(=O)O` [Example 2, 4-{2-(2-Carboxy-ethyl)-3-[6-(5-hydroxymethyl-biphenyl-3-yloxy)-hexyl]-phenoxy}-butyric acid]: the pIC50 is 7.61.

Take `CS(=O)(=O)c1ccc(-c2cc(CO)cc(OCCCCCCc3cccc(OCCCC(=O)O)c3CCC(=O)O)c2)cc1` [Example 7, 4-[2-(2-Carboxy-ethyl)-3-[6-(5-hydroxymethyl-4′-methanesulfonyl-biphenyl-3-yloxy)-hexyl]-phenoxy]-butyric acid]: the pIC50 was 7.08.

Take `CCOc1cc(OCCCCCCc2cccc(OCCCC(=O)O)c2CCC(=O)O)cc(-c2ccc3[nH]ccc3c2)c1` [Example 54, 4-[2-(2-Carboxy-ethyl)-3-{6-[3-ethoxy-5-(1H-indol-5-yl)-phenoxy]-hexyl}-phenoxy]-butyric acid]: the pIC50 was 7.47.

In the case of `CCOc1cc(OCCCCCCc2cccc(OCCCC(=O)O)c2CCC(=O)O)cc(-c2cccc(F)c2)c1` [Example 47, 4-[2-(2-Carboxy-ethyl)-3-[6-(5-ethoxy-3′-fluoro-biphenyl-3-yloxy)-hexyl]-phenoxy]-butyric acid], the pIC50 was 8.63.

As to `O=C(O)CCCOc1cccc(CCCCCCOc2cc(CO)cc(-c3ccsc3)c2)c1CCC(=O)O` [Example 3, 4-{2-(2-Carboxy-ethyl)-3-[6-(3-hydroxymethyl-5-thiophen-3-yl-phenoxy)-hexyl]-phenoxy}-butyric acid], the pIC50 is 7.20.

As for `CC(=O)c1cc(OCCCCCCc2cccc(OCCCC(=O)O)c2CCC(=O)O)cc(-c2cccc(F)c2)c1` [Example 67, 4-[3-[6-(5-Acetyl-3′-fluoro-biphenyl-3-yloxy)-hexyl]-2-(2-carboxy-ethyl)-phenoxy]-butyric acid], the pIC50 is 8.29.

Consider `COCc1cc(OCCCCCCc2cccc(OCCCC(=O)O)c2CCC(=O)O)cc(-c2ccccc2)c1` [Example 9, 4-{2-(2-Carboxy-ethyl)-3-[6-(5-methoxymethyl-biphenyl-3-yloxy)-hexyl]-phenoxy}-butyric acid], for which the pIC50 was 8.71.

As to `COCc1cc(OCCCCCCc2cccc(OCCCC(=O)O)c2CCC(=O)O)cc(-c2ccc3[nH]ccc3c2)c1` [Example 23, 4-[2-(2-Carboxy-ethyl)-3-{6-[3-(1H-indol-5-yl)-5-methoxymethyl-phenoxy]-hexyl}-phenoxy]-butyric acid], the pIC50 was 7.52.

`O=C(O)CCCOc1cccc(CCCCCCOc2cc(OCc3ccccc3)cc(-c3cccc(F)c3)c2)c1CCC(=O)O` [Example 59, 4-[3-[6-(5-Benzyloxy-3′-fluoro-biphenyl-3-yloxy)-hexyl]-2-(2-carboxy-ethyl)-phenoxy]-butyric acid]: the pIC50 was 6.88.

As for `N#CCc1cc(OCCCCCCc2cccc(OCCCC(=O)O)c2CCC(=O)O)cc(-c2ccccc2)c1` [Example 42, 4-{2-(2-Carboxy-ethyl)-3-[6-(5-cyanomethyl-biphenyl-3-yloxy)-hexyl]-phenoxy}-butyric acid], the pIC50 is 7.64.

With `O=C(O)CCCOc1cccc(CCCCCCOc2cc(C(=O)C3CC3)cc(-c3ccc4c(c3)OCO4)c2)c1CCC(=O)O` [Example 72, 4-[3-[6-(3-Benzo[1,3]dioxol-5-yl-5-cyclopropanecarbonyl-phenoxy)-hexyl]-2-(2-carboxy-ethyl)-phenoxy]-butyric acid], the pIC50 is 9.80.

Turning to `COCc1cc(OCCCCCCc2cccc(OCCCC(=O)O)c2CCC(=O)O)cc(-c2cscc2C)c1` [Example 13, 4-(2-(2-Carboxy-ethyl)-3-{6-[3-methoxymethyl-5-(4-methyl-thiophen-3-yl)-phenoxy]-hexyl}-phenoxy)-butyric acid], the pIC50 is 6.85.

Consider `COCc1cc(OCCCCCCc2cccc(OCCCC(=O)O)c2CCC(=O)O)cc(-c2ccc(F)cc2)c1` [Example 10, 4-{2-(2-Carboxy-ethyl)-3-[6-(4′-fluoro-5-methoxymethyl-biphenyl-3-yloxy)-hexyl]-phenoxy}-butyric acid], for which the pIC50 was 8.60.

On to `CC(=O)c1cc(OCCCCCCc2cccc(OCCCC(=O)O)c2CCC(=O)O)cc(-c2ccc3c(c2)OCO3)c1` [Example 64, 4-[3-[6-(3-Acetyl-5-benzo[1,3]dioxol-5-yl-phenoxy)-hexyl]-2-(2-carboxy-ethyl)-phenoxy]-butyric acid], for which the pIC50 was 8.53.

`CCOCc1cc(OCCCCCCc2cccc(OCCCC(=O)O)c2CCC(=O)O)cc(-c2ccc(S(C)(=O)=O)cc2)c1` [Example 29, 4-[2-(2-Carboxy-ethyl)-3-[6-(5-ethoxymethyl-4′-methanesulfonyl-biphenyl-3-yloxy)-hexyl]-phenoxy]-butyric acid]: the pIC50 is 7.80.

For the compound `CCOc1cc(OCCCCCCc2cccc(OCCCC(=O)O)c2CCC(=O)O)cc(-c2ccccc2)c1` [Example 44, 4-[2-(2-Carboxy-ethyl)-3-[6-(5-ethoxy-biphenyl-3-yloxy)-hexyl]-phenoxy]-butyric acid], the pIC50 is 8.90.

For the compound `COCc1cc(OCCCCCCc2cccc(OCCCC(=O)O)c2CCC(=O)O)cc(-c2ccc3c(c2)OCCO3)c1` [Example 12, 4-(2-(2-Carboxy-ethyl)-3-{6-[3-(2,3-dihydro-benzo[1,4]dioxin-6-yl)-5-methoxymethyl-phenoxy]-hexyl}-phenoxy)-butyric acid], the pIC50 is 8.86.

As for `O=C(O)CCCOc1cccc(CCCCCCOc2cc(OCc3ccccc3)cc(-c3ccccc3)c2)c1CCC(=O)O` [Example 58, 4-[3-[6-(5-Benzyloxy-biphenyl-3-yloxy)-hexyl]-2-(2-carboxy-ethyl)-phenoxy]-butyric acid], the pIC50 was 7.13.

For `COCc1cc(OCCCCCCc2cccc(OCCCC(=O)O)c2CCC(=O)O)cc(-c2ccc(C(F)(F)F)cc2)c1` [Example 17, 4-{2-(2-Carboxy-ethyl)-3-[6-(5-methoxymethyl-4′-trifluoromethyl-biphenyl-3-yloxy)-hexyl]-phenoxy}-butyric acid], the pIC50 is 8.79.

As for `CCOc1cc(OCCCCCCc2cccc(OCCCC(=O)O)c2CCC(=O)O)cc(-c2ccc(F)cc2)c1` [Example 48], the pIC50 is 8.28.

Take `CC(=O)c1cc(OCCCCCCc2cccc(OCCCC(=O)O)c2CCC(=O)O)cc(-c2ccsc2)c1` [Example 68, 4-[3-[6-(3-Acetyl-5-thiophen-3-yl-phenoxy)-hexyl]-2-(2-carboxy-ethyl)-phenoxy]-butyric acid]: the pIC50 was 8.70.

As to `O=C(O)CCCOc1cccc(CCCCCCOc2cc(OCc3ccccc3)cc(-c3ccc4c(c3)OCO4)c2)c1CCC(=O)O` [Example 60, 4-[3-[6-(3-Benzo[1,3]dioxol-5-yl-5-benzyloxy-phenoxy)-hexyl]-2-(2-carboxy-ethyl)-phenoxy]-butyric acid], the pIC50 was 8.34.

Take `CC(=O)c1cc(OCCCCCCc2cccc(OCCCC(=O)O)c2CCC(=O)O)cc(-c2ccc3c(c2)OC(F)(F)O3)c1` [Example 69, 4-[3-{6-[3-Acetyl-5-(2,2-difluoro-benzo[1,3]dioxol-5-yl)-phenoxy]-hexyl}-2-(2-carboxy-ethyl)-phenoxy]-butyric acid]: the pIC50 was 9.05.

With `CC(=O)c1cc(OCCCCCCc2cccc(OCCCC(=O)O)c2CCC(=O)O)cc(-c2ccc3c(c2)OCCO3)c1` [Example 65], the pIC50 is 8.68.

In the case of `COCc1cc(OCCCCCCc2cccc(OCCCC(=O)O)c2CCC(=O)O)cc(-c2ccc(Cl)cc2)c1` [Example 11, 4-{2-(2-Carboxy-ethyl)-3-[6-(4′-chloro-5-methoxymethyl-biphenyl-3-yloxy)-hexyl]-phenoxy}-butyric acid], the pIC50 was 8.86.

Consider `O=C(O)CCCOc1cccc(CCCCCCOc2cc(CO)cc(-c3ccc(F)cc3)c2)c1CCC(=O)O` [Example 4, 4-{2-(2-Carboxy-ethyl)-3-[6-(4′-fluoro-5-hydroxymethyl-biphenyl-3-yloxy)-hexyl]-phenoxy}-butyric acid], for which the pIC50 was 7.53.

As for `CCOc1cc(OCCCCCCc2cccc(OCCCC(=O)O)c2CCC(=O)O)cc(-c2ccc3c(c2)OCO3)c1` [Example 43, 4-[3-[6-(3-Benzo[1,3]dioxol-5-yl-5-ethoxy-phenoxy)-hexyl]-2-(2-carboxy-ethyl)-phenoxy]-butyric acid], the pIC50 is 9.66.
